Entries after “also recorded” stand apart in the source; their conditions may differ.
How the values were obtained:
[1] = target: T1, wild-type opsin (Bos taurus, UniProt P02699); experiment: Thermostability of pigments; format: biochemical; settings: incubation at either 4° C. or 37° C.
T1 construct: expressed in transfected cells

[2] = target: T1, wild-type opsin; experiment: Photosensitivity studies; format: biochemical
[3] = target: T1, wild-type opsin; experiment: Immunocytochemistry, localization in HEK293 cells; format: cell-based; settings: immunofluorescence
Procedure: HEK293 cells expressing wild-type rhodopsin or P23H-opsin under a tetracycline-inducible promoter were cultured in Dulbecco's modified Eagle's medium (Invitrogen). The cells were attached to glass bottom microwell dishes (MatTek Corp.) with Cell-Tak (Becton Dickinson Labware). Expression of opsin or P23H-opsin was induced by the addition of 1 μg/ml tetracycline as recommended by the manufacturer's protocol (Invitrogen). The cells were treated with 50 μM 11-cis-7-ring retinal 2 hours after induction. The cells were harvested after 24 hours and fixed with 4% paraformaldehyde (Fisher) in PBS (136 mM NaCl, 11.4 mM sodium phosphate, pH 7.4) for 10 minutes and washed by PBS. To block nonspecific labeling, the cells were incubated in 1.5% normal goat serum (Vector Lab., Inc.) in PBST (136 mM NaCl, 11.4 mM sodium phosphate, 0.1% Triton X-100, pH 7.4) for 15 minutes at room temperature. The cells were incubated overnight at 4° C. in purified 1D4 antibody diluted with PBST. The sections were rinsed in PBST and incubated with indocarbocyanine (Cy3)-conjugated goat anti-mouse IgG (Jackson ImmunoResearch Lab., Inc.) and Hoechst 33342 dye (Molecular Probes). […] For confocal imaging, the cells were analyzed on a Zeiss LSM510 laser scanning microscope (Carl Zeiss, Inc.).

[4] = target: T2, P23H-opsin (Bos taurus, UniProt P02699, P23H); experiment: Pigment formation, retinals added to cell culture medium during opsin biosynthesis; format: cell-based; settings: for pigment formation / rescue of folding of P23H-opsin: retinal 50 μM added during biosynthesis; for absorbance max of the pigment formed with P23H-opsin: retinal added during biosynthesis, immunoaffinity purified
T2 construct: expressed in transfected cells

[5] = target: T2, P23H-opsin; experiment: Pigment regeneration, retinals added to harvested cells/cell membranes; format: biochemical; settings: retinal added after the cells were harvested
Text: (§1) For the construction and selection of tetracycline-inducible opsin cell lines, an Invitrogen T-REx™ system was used. Briefly, nucleic acids encoding wild-type opsin and the P23H mutant were excised as EcoRI-NotI fragments from pMT4 and then cloned into the EcoRI-NotI site within the polylinker of pcDNA4. Using opsin-specific forward and reverse primers, the entire gene was sequenced for verification. These plasmids were then separately transfected by calcium-phosphate precipitation into T-REx™-293 cells that already stably expressed the tetracycline repressor; these cells were routinely grown under blasticidin selection. After transfection, zeocin was added to the culture medium, and surviving colonies of cells were isolated and subsequently expanded into larger 6-well plates. Each of these clones was exposed to tetracycline, and 48 hours after induction, the cells were harvested and solubilized with 1% DM. Separately, uninduced cells were also solubilized. The samples were run on SDS-PAGE and immunoblotted with the monoclonal antibody 1D4. Cell lines were chosen on the basis of production of the least amount of opsin (i.e., nondetectable opsin levels on immunoblots) in the absence of tetracycline and moderate amounts of opsin in the presence of the drug. HEK293 cells were grown in Dulbecco's modified Eagle's medium containing high glucose (Invitrogen) at 37° C. in the presence of 5.0% CO2. In all of the studies, the cells were harvested after 48 hours of induction with tetracycline (1 μg/ml).
(§2) The cells were washed three times with PBS, harvested, and incubated with different analogs of 11-cis-retinal (50 μM) for 45 minutes at 4° C. The cells were then lysed with 1.0% n-dodecyl-maltoside (DM) (Anatrace) in the presence of protease inhibitors (complete protease inhibitor mixture tablets; Roche Molecular Biochemicals) and centrifuged at 36,000 rpm in a Beckman ultracentrifuge for 30 minutes at 4° C. The supernatant was incubated with 1D4-coupled CNBr-activated Sepharose 4B (Pharmacia Corp.) beads overnight. The beads were then washed three times with PBS containing 0.1% DM. Bound pigments were eluted off the beads using 0.1 mM synthetic peptide (last 9 amino acid residues of the C terminus of rhodopsin) in 0.1% DM. In studies when retinoids (50 μM) were added during biosynthesis, a Me2SO solution of retinoids (10 μl of 100 mM) was added directly to the cell culture medium after 2 and 24 hours of induction. The cells were harvested at 48 hours and lysed with 1.0% DM. Pigment was purified by immunoaffinity chromatography. The UV-visible spectra of the eluted pigment samples were then recorded on a Perkin Elmer Lambda 800 UV-visible spectrophotometer in the range of 250-650 nm.

[6] = target: T1, wild-type opsin; experiment: as above; format: biochemical; settings: retinal 50 μM added to harvested cells, 45 minutes at 4° C.
Text: as §1, §2

[7] = target: T1, wild-type opsin; experiment: Pigment formation, retinals added to cell culture medium during opsin biosynthesis; format: cell-based; settings: for pigment formation with wild-type opsin: retinal 50 μM added during biosynthesis; for absorbance max of the pigment formed with wild-type opsin: retinal added during biosynthesis, immunoaffinity purified
Text: as §1, §2

[8] = target: T2, P23H-opsin; experiment: Glycosylation status by immunoblotting; format: cell-based; settings: retinal added during biosynthesis, immunoblot
Procedure: The samples were loaded on 10% SDS-polyacrylamide gels and transferred to Immobilon-NC membrane (Millipore) according to established protocols. The membranes were blocked with blocking buffer (Licor) for 1 hour and incubated at room temperature with 1D4 antibody (1:1000) for 1 hour. […] The membranes were then washed with PBS containing Tween 20 and scanned using an Odyssey Infrared imager (Licor).
The samples were incubated at 37° C. for 16 hours and then loaded onto a 10% polyacrylamide gel. The immunoblots were developed as described above.

[9] = target: T2, P23H-opsin; experiment: Retinoid analysis of the bound chromophore (HPLC, spectrophotometry); format: binding
Procedure: (§3) The mixture was kept at room temperature for 30 min, and then 400 μl of MeOH and 400 μl of hexane were added. The mixture was shaken on a vortex for 5 minutes and centrifuged at 14,000 rpm to separate layers. The hexane layer was collected. Another 400 μl of hexane was added to the aqueous layer, and extraction was repeated. Combined hexane layers were dried down and redissolved in 120 μl of hexane, and 100 μl fractions were analyzed by normal phase HPLC as previously described.

[10] = target: T1, wild-type opsin; experiment: as above; format: binding
Procedure: as §3

[11] = target: T2, P23H-opsin; experiment: Immunocytochemistry, localization in HEK293 cells; format: cell-based; settings: immunofluorescence
Procedure: HEK293 cells expressing wild-type rhodopsin or P23H-opsin under a tetracycline-inducible promoter were cultured in Dulbecco's modified Eagle's medium (Invitrogen). The cells were attached to glass bottom microwell dishes (MatTek Corp.) with Cell-Tak (Becton Dickinson Labware). Expression of opsin or P23H-opsin was induced by the addition of 1 μg/ml tetracycline as recommended by the manufacturer's protocol (Invitrogen). […] The cells were harvested after 24 hours and fixed with 4% paraformaldehyde (Fisher) in PBS (136 mM NaCl, 11.4 mM sodium phosphate, pH 7.4) for 10 minutes and washed by PBS. To block nonspecific labeling, the cells were incubated in 1.5% normal goat serum (Vector Lab., Inc.) in PBST (136 mM NaCl, 11.4 mM sodium phosphate, 0.1% Triton X-100, pH 7.4) for 15 minutes at room temperature. The cells were incubated overnight at 4° C. in purified 1D4 antibody diluted with PBST. The sections were rinsed in PBST and incubated with indocarbocyanine (Cy3)-conjugated goat anti-mouse IgG (Jackson ImmunoResearch Lab., Inc.) and Hoechst 33342 dye (Molecular Probes). The cells were rinsed in PBST and mounted in 50 μl of 2% 1,4-diazabicyclo-[2.2.2]octane (Sigma) in 90% glycerol to retard photobleaching. For confocal imaging, the cells were analyzed on a Zeiss LSM510 laser scanning microscope (Carl Zeiss, Inc.).

[12] = cell membranes, after photobleaching
[13] = mixture of the four 7-ring retinal isomers added during biosynthesis

Compound | pigment formation / rescue of folding of P23H-opsin [4] | pigment formation with P23H-opsin in cell membranes [5] | regeneration of wild-type rhodopsin in cell membranes [6] | pigment formation with wild-type opsin [7] | absorbance max of the pigment formed with P23H-opsin [4] | glycosylation of P23H-opsin [8] | absorbance max of the pigment formed with wild-type opsin [7] | other results
7-rhodopsin: rhodopsin (wild-type opsin) regenerated with 11-cis-7-ring retinal |  |  |  |  |  |  |  | temperature stability of purified pigment [1]: no change in the amount of chromophore; stability to light in cell membranes ([2]; HEK293 cell membranes, 20 minutes light): not bleached by light; stability to light, purified in detergent ([2]; purified pigment in detergent): stable to light; cellular localization of wild-type opsin pigment [3]: found predominantly at the plasma membrane
11-cis-6-ring retinal | No significant pigment; also recorded: lack of activity | only a small amount of pigment was formed | regeneration | recombined with wild-type opsin |  |  |  | 
11-cis-7-ring retinal | significant amounts of pigment | only a small amount of pigment was formed | regeneration | recombined with wild-type opsin | approximately 490±3 nm | Golgi-associated glycosylation pattern similar to the wild-type protein | approximately 500±3 nm | fraction of P23H-opsin folded to form pigment (rescued) ([4]; selective elution of folded form, 10 mM phosphate, pH 6.0, spectra and immunoblots): approximately 80%; substitution of bound chromophore by added 11-cis-retinal [9, 12]: did not lead to its substitution; isomer bound by P23H-opsin [9, 13]: selectively bound; substitution of bound chromophore by added 11-cis-retinal [10, 12]: did not lead to its substitution; isomer bound by wild-type opsin [10, 13]: selectively bound
11-cis-9-demethyl-7-ring retinal | ineffective in pigment formation |  |  |  |  |  |  | pigment formation / rescue of folding of P23H-opsin ([4]; listed as 11-cis-9-demethyl-ring retinal): lack of activity
CC1=C(/C=C/C(C)=C\C=C\C(C)=C\C=O)C(C)(C)CCC1 [9-cis-retinal] |  |  |  |  |  |  |  | cellular localization of P23H-opsin [11]: promoted transport of P23H-opsin to the cell surface
CC1=C(/C=C/C(C)=C/C=C/C(C)=C/C=O)C(C)(C)CCC1 [11-cis-retinal] | induce the in vivo folding and stabilization of P23H-opsin | only a small amount of pigment was formed | regeneration | regeneration | 492 nm | acquired a mature state of glycosylation | 499 nm | 

From patent publication US9907762B2, “Stabilized mutant opsin proteins” (University of Washington, priority 2003, dated 2018)
